From patent US6500845B1, “Lactam derivatives as immunomodulating agents” (Gruenenthal GmbH, priority 1994, dated 2002)
In brackets after ≈: the same amount, converted by molar mass.

Legend:
[1] = system: IL-2 release in vivo (T-lymphocytes stimulated by staphylococcal enterotoxin B); set-up: species or system Balb/c mice; conditions: mouse; for ED40 (dosage reducing serum IL-2 concentrations by 40%): ip
[2] = system: LPS-induced TNF-α release, human mononuclear cells; assay: LPS-induced TNF-α release from human mononuclear cells of the peripheral blood; format: cell-based; conditions: 20 hours incubation; for IC50: Homo sapiens, LPS-induced, read-out: IC50 (50% inhibition in the release of TNF-α); for Inhibition of TNF-α release in (%): concentration of 50 μ/ml, LPS 2.5 μg
Source text: The release of cytokines from human mononuclear cells of the peripheral blood, i.e. T-cells, B-cells and monocytes, can be studied in vitro after stimulation by lipopolysaccharide (LPS) or the toxic shock syndrome toxin-1 (TSST-1). LPS is a component of the bacterial cell wall and stimulates monocytes and macrophages. TSST-1 is a bacterial superantigen that stimulates T-cells as well as monocytes/macrophages. Superantigens bind to the Vβ chain of the T-cell receptor and to the MHC class II and thus simulate the recognition by a specific T-cell receptor of an antigen presented by the MHC class II. Activation of cells by LPS or TSST-1 induces the release of TNF-α, IFN-γ and other cytokines.
Mononuclear cells were prepared from the heparinized blood of at least three voluntary donors. For this purpose, 20 ml blood samples each were separated according to well known procedures using a Ficoll-Paque gradient. The cells were harvested and washed three times with a cell culture medium. This cell culture medium was composed of RPMI 1640 medium supplemented with 2 mM of glutamine (Life Technologies, Eggenstein, Germany), 10% fetal calf serum (Life Technologies), 50 μg/ml of streptomycin (Sigma, Deisenhofen, Germany), 50 IU/ml of penicillin (Sigma) and 100 μM of b-mercaptoethanol (Merck, Darmstadt, Germany). The mononuclear cells were suspended in 15 ml of cell culture medium and separated in 1 ml fractions in sterile 24-well incubation plates (Sigma). 1 μl of dimethylsulfoxide (DMSO) or 1 μl of a DMSO-solution containing 5 ′ by weight of a compound according to the invention was added to each of the 1 ml fractions. After incubation for 1 hour in a CO2-incubator (5% CO2, 90% humidity), 2.5 μg of LPS (from E. coli 0127: B8, Sigma) or 0.1 μg of TSST-1 (Sigma) were added to each of the fractions containing a compound according to the invention. Incubation of the cultures was continued for 20 hours. The concentrations of TNF-α and IFN-γ in the cell culture supernatants were determined with commercial ELISA-tests (Boehringer Mannheim, Germany; Endogen, Boston, Mass.).
The IC50 value is the concentration in μg/ml which produces a 50% inhibition in the release of TFN-α.

[3] = system: TSST-1-induced release of TNF-α, human mononuclear cells; format: cell-based
[4] = system: TSST-1-induced release of IFN-γ, human mononuclear cells; format: cell-based

Structure (SMILES) | Maximum inhibition of serum IL-2 increase in % [1] | ED40 (dosage reducing serum IL-2 concentrations by 40%) [1] | IC50 [2] | Inhibition of TNF-α release in (%) [2] | Effect on TSST-1-induced release of TNF-α [3] | Effect on TSST-1-induced release of IFN-γ [4] | melting point
CC1(N2Cc3ccccc3C2=O)CCC(=O)NC1=O (racemic) [Example 2, 3-Methyl-3-(1-oxo-1,3-dihydro-isoindol-2-yl)-piperidine-2,6-dione] | 56 ± 3% | 112 mg/kg i.p. | 10 µg/mL (≈ 38.7 µM) | 72 ± 8% | enhanced compared to thalidomide | enhanced compared to thalidomide | 231 to 232 °C
CC1(N2Cc3ccccc3C2=O)CCC(=O)NC1=O (single isomer, unassigned; (-)) [Example 3 (−) enantiomer, (−)-3-Methyl-3-(1-oxo-1,3-dihydro-isoindol-2-yl)-piperidine-2,6-dione] | 54 ± 5% | 297 mg/kg i.p. | 8 µg/mL (≈ 31 µM) | 82 ± 5% | – | – | –
CC1(n2[se]c3ccccc3c2=O)CCCNC1=O (stereo not drawn) [Example 1, 2-(3-Methyl-2-oxo-piperidin-3-yl)-benzo[d]isoselenazol-3-one] | 43 ± 5% | ca. 20^ mg/kg i.p. | – | 93 ± 1% | – | – | –
CC1(n2sc3ccccc3c2=O)CCCNC1=O (stereo not drawn) [Example 4, 2-(3-methyl-2-oxo-piperidin-3-yl)-benzo[d]isothiazol-3-one] | 52 ± 3% | <10 mg/kg i.p. | – | 93 ± 9% | – | – | –
O=C1CCC(N2C(=O)c3ccccc3C2=O)C(=O)N1 (stereo not drawn) [Thalidomide, reference compound] | 56 ± 10% | 171 mg/kg i.p. | 50 µg/mL (≈ 194 µM) | 54 ± 7% | – | – | –
